# Reference: patent US20230416256A1, “SMALL MOLECULE INHIBITORS OF NF-kB INDUCING KINASE” (Janssen Pharmaceutica NV, priority 2020, published 2023)
# pIC50: −log10 of the molar value. Where two headings read alike, the source gives them in different places.
# How the values were obtained:
# [1] = tested on: p-IKKα levels in L363 (NIK translocated multiple myeloma) cells; test: Effect of compounds on p-IKKα levels in L363 cells (AlphaLISA SureFire Ultra); assay type: cell-based, human; settings: 10 μM MG132, 6 h, average of values obtained, read-out: Assay 2 IC50
# Procedure, shortened: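 L363 cells were BAFF-stimulated overnight (250 ng/ml) in DMEM/0.5% BSA, then exposed to an 11-point 1:3 compound series (0.3% DMSO) with BAFF and 10 μM MG132 for 6 h at 37 °C. p-IKKα (Ser176/180) was measured by AlphaLISA SureFire Ultra. IC50 was fitted from % inhibition normalized to stimulated and unstimulated controls.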
# [2] = target: recombinant human NF-kappaB-inducing kinase (NIK/MAP3K14) (Homo sapiens, UniProt Q99558); test: Inhibition of auto-phosphorylation of recombinant human NIK/MAP3K14 activity (AlphaScreen); assay type: biochemical; settings: GST-tagged NIK/MAP3K14 1 nM, 5 μM ATP, 2 h at 25° C.; average of values obtained
# Procedure, shortened: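 GST-tagged NIK (1 nM) auto-phosphorylated for 2 h at 25 °C with 5 μM ATP in 50 mM Tris pH 7.5, 5 mM MgCl2, 0.7% DMSO. Phospho-Ser176/180 was detected by AlphaScreen using an anti-phospho-IKK antibody. IC50 came from sigmoidal fits of % inhibition versus high (full activity) and low (no ATP) controls.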
# [3] = Homo sapiens, L-363, 250 ng/ml BAFF stimulated
# [4] = Homo sapiens, L-363, 6 h, 250 ng/ml BAFF stimulated
# recombinant human NF-kappaB-inducing kinase (NIK/MAP3K14), sequence (Q99558 whole entry): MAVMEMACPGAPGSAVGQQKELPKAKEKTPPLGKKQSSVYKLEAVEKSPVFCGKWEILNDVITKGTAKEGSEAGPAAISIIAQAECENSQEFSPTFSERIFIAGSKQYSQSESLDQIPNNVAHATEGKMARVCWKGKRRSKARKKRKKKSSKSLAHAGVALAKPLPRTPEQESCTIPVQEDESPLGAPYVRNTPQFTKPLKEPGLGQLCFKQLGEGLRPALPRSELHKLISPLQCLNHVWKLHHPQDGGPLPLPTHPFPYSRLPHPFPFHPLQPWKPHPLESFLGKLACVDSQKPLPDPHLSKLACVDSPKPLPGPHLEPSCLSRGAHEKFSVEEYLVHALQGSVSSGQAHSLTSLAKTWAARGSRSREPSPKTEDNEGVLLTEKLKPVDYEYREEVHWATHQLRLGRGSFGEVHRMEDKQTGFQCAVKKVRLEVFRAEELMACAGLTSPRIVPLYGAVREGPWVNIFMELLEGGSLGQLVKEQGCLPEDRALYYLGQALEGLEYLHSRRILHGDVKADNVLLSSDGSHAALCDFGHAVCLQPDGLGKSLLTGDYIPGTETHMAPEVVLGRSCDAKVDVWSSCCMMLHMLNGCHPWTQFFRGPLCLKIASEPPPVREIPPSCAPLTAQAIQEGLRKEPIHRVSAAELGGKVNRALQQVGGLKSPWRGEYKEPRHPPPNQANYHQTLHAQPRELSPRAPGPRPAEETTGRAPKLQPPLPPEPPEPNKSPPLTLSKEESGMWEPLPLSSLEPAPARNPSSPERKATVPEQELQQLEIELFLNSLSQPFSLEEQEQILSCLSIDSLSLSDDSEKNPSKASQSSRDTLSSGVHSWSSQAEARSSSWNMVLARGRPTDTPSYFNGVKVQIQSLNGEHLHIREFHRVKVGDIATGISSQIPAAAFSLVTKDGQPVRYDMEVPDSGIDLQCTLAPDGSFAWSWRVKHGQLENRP
compound,measurement,setting,value
"CN1CC[C@](O)(c2cccc(-c3csc(-c4c[nH]c5nccnc45)n3)c2)C1=O (single isomer, unassigned) [Example 39]",pIC50,[1]; [3],< 6.30
same,pIC50,[2],< 6.30
"CS(=O)(=O)c1cnc2[nH]cc(-c3nc(-c4cccc([C@]5(O)CCn6ccnc65)c4)cs3)c2c1 [Example 28, (R)-7-(3-(2-(5-(Methylsulfonyl)-1H-pyrrolo[2,3-b]pyridin-3-yl)thiazol-4-yl)phenyl)-6,7-dihydro-5H-pyrrolo[1,2-a]imidazol-7-ol]",pIC50,[1]; [4],6.30 to 7.00
same,pIC50,[2],≥ 7.00
"Cc1ccnc2[nH]cc(-c3nc(-c4cccc([C@]5(O)CCn6ccnc65)c4)cs3)c12 [Example 87, (R)-7-(3-(2-(4-Methyl-1H-pyrrolo[2,3-b]pyridin-3-yl)thiazol-4-yl)phenyl)-6,7-dihydro-5H-pyrrolo[1,2-a]imidazol-7-ol]",pIC50,[1]; [4],< 6.30
same,pIC50,[2],≥ 7.00
"O[C@@]1(c2cccc(-c3csc(-c4c[nH]c5ncncc45)n3)c2)CCc2cccnc21 (single isomer, unassigned) [Example 5]",pIC50,[1]; [4],6.30 to 7.00
same,pIC50,[2],≥ 7.00
"CN1CC[C@@](O)(c2cccc(-n3cnc(-c4c[nH]c5ncccc45)n3)c2)C1=O (single isomer, unassigned) [Example 121]",pIC50,[1]; [3],< 6.30
same,pIC50,[2],≥ 7.00
"O[C@@]1(c2cccc(-c3csc(-c4c[nH]c5ncncc45)n3)c2)CCn2ccnc21 [Example 20, (R)-7-(3-(2-(7H-Pyrrolo[2,3-d]pyrimidin-5-yl)thiazol-4-yl)phenyl)-6,7-dihydro-5H-pyrrolo[1,2-a]imidazol-7-ol]",pIC50,[1]; [4],≥ 7.00
same,pIC50,[2],≥ 7.00
"O[C@@]1(c2cccc(-c3csc(-c4c[nH]c5ncccc45)n3)c2)CCCn2ccnc21 (single isomer, unassigned) [Example 38]",pIC50,[1]; [4],≥ 7.00
same,pIC50,[2],≥ 7.00
"Cc1cnc2[nH]c(C)c(-c3nc(-c4cccc([C@]5(O)CCN(C)C5=O)c4)cs3)c2c1 [Example 74, (R)-3-(3-(2-(2,5-Dimethyl-1H-pyrrolo[2,3-b]pyridin-3-yl)thiazol-4-yl)phenyl)-3-hydroxy-1-methylpyrrolidin-2-one]",pIC50,[1]; [3],< 6.30
same,pIC50,[2],< 6.30
"O[C@]1(c2cccc(-c3csc(-c4c[nH]c5nccnc45)n3)c2)CCn2ccnc21 [Example 42, (S)-7-(3-(2-(5H-Pyrrolo[2,3-b]pyrazin-7-yl)thiazol-4-yl)phenyl)-6,7-dihydro-5H-pyrrolo[1,2-a]imidazol-7-ol]",pIC50,[1]; [4],< 6.30
same,pIC50,[2],6.30 to 7.00
"O[C@@]1(c2cccc(-c3csc(-c4c[nH]c5nccnc45)n3)c2)COc2cccnc21 [Example 86, (R)-3-(3-(2-(5H-Pyrrolo[2,3-b]pyrazin-7-yl)thiazol-4-yl)phenyl)-2,3-dihydrofuro[3,2-b]pyridin-3-ol]",pIC50,[1]; 250 ng/ml BAFF stimulated,< 6.30
same,pIC50,[2],< 6.30
"N#Cc1cnc2[nH]cc(-c3nc(-c4cccc([C@]5(O)CCn6ccnc65)c4)cs3)c2c1 [Example 26, (R)-3-(4-(3-(7-Hydroxy-6,7-dihydro-5H-pyrrolo[1,2-a]imidazol-7-yl)phenyl)thiazol-2-yl)-1H-pyrrolo[2,3-b]pyridine-5-carbonitrile]",pIC50,[1]; [4],≥ 7.00
same,pIC50,[2],≥ 7.00
"CN1CC[C@](O)(c2cccc(-c3cnc(-c4c[nH]c5ncccc45)s3)c2)C1=O (single isomer, unassigned) [Example 4]",pIC50,[1]; [3],< 6.30
same,pIC50,[2],< 6.30
"CN1CC[C@@](O)(c2cccc(-c3csc(-n4ccc5ncccc54)n3)c2)C1=O (single isomer, unassigned) [Example 111]",pIC50,[1]; [3],< 6.30
same,pIC50,[2],6.30 to 7.00
"CN1C[C@@](O)(c2cccc(-c3csc(-c4c[nH]c5nccnc45)n3)c2)C1=O [Example 45, (S)-3-(3-(2-(5H-Pyrrolo[2,3-b]pyrazin-7-yl)thiazol-4-yl)phenyl)-3-hydroxy-1-methylazetidin-2-one]",pIC50,[1]; [3],< 6.30
same,pIC50,[2],< 6.30
"CN1CC[C@@](O)(c2cccc(-c3csc(-c4c[nH]c5nccnc45)n3)c2)C1=O (single isomer, unassigned) [Example 40]",pIC50,[1]; [3],6.30 to 7.00
same,pIC50,[2],≥ 7.00
"CN1CC[C@@](O)(c2cccc(-c3csc(-c4c[nH]c5ncncc45)n3)c2)C1=O [Example 53, (R)-3-(3-(2-(7H-Pyrrolo[2,3-d]pyrimidin-5-yl)thiazol-4-yl)phenyl)-3-hydroxy-1-methylpyrrolidin-2-one]",pIC50,[1]; [3],< 6.30
same,pIC50,[2],≥ 7.00
"Cc1[nH]c2ncccc2c1-c1nc(-c2cccc([C@]3(O)CCN(C)C3=O)c2)cs1 [Example 71, (R)-3-Hydroxy-1-methyl-3-(3-(2-(2-methyl-1H-pyrrolo[2,3-b]pyridin-3-yl)thiazol-4-yl)phenyl)pyrrolidin-2-one]",pIC50,[1]; [3],< 6.30
same,pIC50,[2],6.30 to 7.00
"O[C@H]1C[C@](O)(c2cccc(-c3csc(-c4c[nH]c5ncccc45)n3)c2)c2ncccc21 (single isomer, unassigned) [Example 102]",pIC50,[1]; [4],< 6.30
same,pIC50,[2],< 6.30
"CN1CCC[C@](O)(c2cccc(-c3csc(-c4c[nH]c5nccnc45)n3)c2)C1=O [Example 55, (S)-3-(3-(2-(5H-Pyrrolo[2,3-b]pyrazin-7-yl)thiazol-4-yl)phenyl)-3-hydroxy-1-methylpiperidin-2-one]",pIC50,[1]; [3],< 6.30
same,pIC50,[2],< 6.30
"O[C@@]1(c2cccc(-c3csc(-c4c[nH]c5ncccc45)n3)c2)CCc2scnc21 (single isomer, unassigned) [Example 32]",pIC50,[1]; [4],≥ 7.00
same,pIC50,[2],≥ 7.00
"CN1CC[C@@](O)(c2cccc(-c3ncc(-c4c[nH]c5ncccc45)n3C)c2)C1=O [Example 125, (R)-3-Hydroxy-1-methyl-3-(3-(1-methyl-5-(1H-pyrrolo[2,3-b]pyridin-3-yl)-1H-imidazol-2-yl)phenyl)pyrrolidin-2-one]",pIC50,[1]; [3],< 6.30
same,pIC50,[2],6.30 to 7.00
"O[C@@H]1C[C@](O)(c2cccc(-c3csc(-c4c[nH]c5ncccc45)n3)c2)c2ncccc21 (single isomer, unassigned) [Example 104]",pIC50,[1]; [4],< 6.30
same,pIC50,[2],< 6.30
"CN1CCC[C@@](O)(c2cccc(-c3csc(-c4c[nH]c5nccnc45)n3)c2)C1=O [Example 54, (R)-3-(3-(2-(5H-Pyrrolo[2,3-b]pyrazin-7-yl)thiazol-4-yl)phenyl)-3-hydroxy-1-methylpiperidin-2-one]",pIC50,[1]; [3],6.30 to 7.00
same,pIC50,[2],≥ 7.00
"O[C@@]1(c2cccc(-c3csc(-c4c[nH]c5nnccc45)n3)c2)CCn2ccnc21 [Example 88, (R)-7-(3-(2-(7H-pyrrolo[2,3-c]pyridazin-5-yl)thiazol-4-yl)phenyl)-6,7-dihydro-5H-pyrrolo[1,2-a]imidazol-7-ol]",pIC50,[1]; [4],< 6.30
same,pIC50,[2],≥ 7.00
"O[C@]1(c2cccc(-c3nc(-c4c[nH]c5ncccc45)cs3)c2)CCn2ccnc21 [Example 84, (S)-7-(3-(4-(1H-Pyrrolo[2,3-b]pyridin-3-yl)thiazol-2-yl)phenyl)-6,7-dihydro-5H-pyrrolo[1,2-a]imidazol-7-ol]",pIC50,[1]; [4],< 6.30
same,pIC50,[2],6.30 to 7.00
"O[C@@]1(c2cccc(-c3nc(-c4c[nH]c5ncccc45)cs3)c2)CCn2ccnc21 [Example 15, (R)-7-(3-(4-(1H-Pyrrolo[2,3-b]pyridin-3-yl)thiazol-2-yl)phenyl)-6,7-dihydro-5H-pyrrolo[1,2-a]imidazol-7-ol]",pIC50,[1]; [4],6.30 to 7.00
same,pIC50,[2],≥ 7.00
"[2H]c1[nH]c2nccnc2c1-c1nc(-c2cccc([C@]3(O)CCn4ccnc43)c2)cs1 [Example 62, (R)-7-(3-(2-(5H-Pyrrolo[2,3-b]pyrazin-7-yl-6-d)thiazol-4-yl)phenyl)-6,7-dihydro-5H-pyrrolo[1,2-a]imidazol-7-ol]",pIC50,[1]; [4],≥ 7.00
same,pIC50,[2],≥ 7.00
"Cn1ccnc1[C@@](C)(O)c1cccc(-c2csc(-c3c[nH]c4ncccc34)n2)c1 (single isomer, unassigned) [Example 79]",pIC50,[1]; [4],< 6.30
same,pIC50,[2],< 6.30
"[2H]c1[nH]c2nccnc2c1-c1nc(-c2cccc([C@@]3(O)CCn4ccnc43)c2)cs1 [Example 18, (S)-7-(3-(2-(5H-Pyrrolo[2,3-b]pyrazin-7-yl-6-d)thiazol-4-yl)phenyl)-6,7-dihydro-5H-pyrrolo[1,2-a]imidazol-7-ol]",pIC50,[1]; [4],< 6.30
same,pIC50,[2],< 6.30
"CN1C[C@](O)(c2cccc(-c3csc(-c4c[nH]c5nccnc45)n3)c2)C1=O [Example 46, (R)-3-(3-(2-(5H-Pyrrolo[2,3-b]pyrazin-7-yl)thiazol-4-yl)phenyl)-3-hydroxy-1-methylazetidin-2-one]",pIC50,[1]; [3],< 6.30
same,pIC50,[2],< 6.30
"O[C@@]1(c2cccc(-c3csc(-c4c[nH]c5ncc(C(F)(F)F)cc45)n3)c2)CCn2ccnc21 [Example 25, (R)-7-(3-(2-(5-(Trifluoromethyl)-1H-pyrrolo[2,3-b]pyridin-3-yl)thiazol-4-yl)phenyl)-6,7-dihydro-5H-pyrrolo[1,2-a]imidazol-7-ol]",pIC50,[1]; [4],6.30 to 7.00
same,pIC50,[2],≥ 7.00
"O=C1N(CC(F)(F)F)CC[C@@]1(O)c1cccc(-c2csc(-c3c[nH]c4nccnc34)n2)c1 [Example 44, (R)-3-(3-(2-(5H-Pyrrolo[2,3-b]pyrazin-7-yl)thiazol-4-yl)phenyl)-3-hydroxy-1-(2,2,2-trifluoroethyl)pyrrolidin-2-one]",pIC50,[1]; [3],< 6.30
same,pIC50,[2],< 6.30
